For test [1], the target named is T1, 3-phosphoinositide-dependent protein kinase 1 (Homo sapiens, UniProt O15530).
T1 sequence (O15530 whole entry): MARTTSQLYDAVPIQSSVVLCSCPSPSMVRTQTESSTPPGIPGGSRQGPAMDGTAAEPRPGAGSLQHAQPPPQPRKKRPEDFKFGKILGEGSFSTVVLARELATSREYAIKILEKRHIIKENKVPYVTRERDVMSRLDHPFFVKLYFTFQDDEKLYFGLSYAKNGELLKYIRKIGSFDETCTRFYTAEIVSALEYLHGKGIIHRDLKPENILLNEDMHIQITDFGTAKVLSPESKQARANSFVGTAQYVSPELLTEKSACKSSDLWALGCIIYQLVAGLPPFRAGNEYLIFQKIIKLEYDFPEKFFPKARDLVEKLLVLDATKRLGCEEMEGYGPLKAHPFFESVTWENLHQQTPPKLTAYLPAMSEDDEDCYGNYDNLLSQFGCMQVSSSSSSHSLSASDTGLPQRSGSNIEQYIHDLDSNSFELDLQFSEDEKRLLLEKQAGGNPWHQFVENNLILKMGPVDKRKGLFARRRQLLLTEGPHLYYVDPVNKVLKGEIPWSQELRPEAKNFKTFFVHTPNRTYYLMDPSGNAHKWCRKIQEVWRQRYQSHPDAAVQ
As to the kind of experiment: Inhibition of PDK1 (unknown origin) expressed in HEK293 cells using PDKtide as substrate after 10 mins by liquid scintillation counting in presence of [gamma-32P]ATP.

In test [2] the target is T2, 3-phosphoinositide-dependent protein kinase 1 (Homo sapiens) (UniProt O15530).
T2 sequence (whole entry): T1 sequence (O15530 whole entry)
The test can be described thus: Inhibition of PDK1 (unknown origin) expressed in HEK293 cells using PDKtide as substrate at 10 uM after 10 mins by liquid scintillation counting in presence of [gamma-32P]ATP.

Usually IC50 stands for the concentration that gives 50% inhibition. By inhibition is commonly meant the relative decrease from the control value, in per cent. For the compound `COc1ccc(-c2nc(Nc3cccc(NC(=O)N4CCCC4)c3)nc3[nH]ccc23)cc1`, the 50% inhibitory concentration (IC50) in test [1] came to 4.9 µM. Besides, in test [2], the inhibition is 70%.
On to `COc1ccc(Nc2nc(Nc3cccc(NC(=O)N4CCCC4)c3)nc3[nH]ccc23)cc1`, for which the inhibition in test [2] came to 45%.
The same measure, in the same setting: the value for `O=C(Nc1cccc(Nc2nc(-c3ccccc3)c3cc[nH]c3n2)c1)N1CCCC1` was 59%; that for `O=C(Nc1cccc(Nc2nc(-c3cccc(OCc4cccnc4)c3)c3cc[nH]c3n2)c1)N1CCCC1` was 46%.
Consider `COc1ccc(Oc2nc(Nc3cccc(NC(=O)N4CCCC4)c3)nc3[nH]ccc23)cc1`, for which, in test [2], the inhibition stood at 65%.
`COc1ccc(-c2nc(Nc3cccc(NC(=O)N4CCCC4)c3)nc3[nH]ccc23)cc1OC`: the inhibition in test [2] worked out at 65%.
In the case of `COc1nc(Nc2cccc(NC(=O)N3CCCC3)c2)nc2[nH]ccc12`, in test [1], the IC50 was determined as 1.2 µM. Also, the inhibition in test [2] stood at 90%.
On to `COc1cc(-c2nc(Nc3cccc(NC(=O)N4CCCC4)c3)nc3[nH]ccc23)cc(OC)c1OC`, for which the inhibition in test [2] stood at 36%.
Turning to `O=C(Nc1cccc(Nc2nc(Nc3ccccc3)c3cc[nH]c3n2)c1)N1CCCC1`, the inhibition in test [2] came to 46%.
Consider `COc1cccc(-c2nc(Nc3cccc(NC(=O)N4CCCC4)c3)nc3[nH]ccc23)c1`, for which, in test [2], the inhibition was 48%.
Consider `O=C(Nc1cccc(Nc2nc(-c3ccc4c(c3)OCO4)c3cc[nH]c3n2)c1)N1CCCC1`, for which the inhibition in test [2] is 61%.

For the origin of these results see ChEMBL document CHEMBL3352432, “Synthesis and biological evaluation of 2-anilino-4-substituted-7H-pyrrolopyrimidines as PDK1 inhibitors” (Bioorg Med Chem, 2014).
